Test results as given in US20210198277A1, “AMINE-SUBSTITUTED ARYL OR HETEROARYL COMPOUNDS” (Epizyme, Inc., priority 2016, published 2021).
Read-outs that look alike come from different tables or passages of the source.

Assays:
[1] = target: T1, human EHMT2 913-1193 (Homo sapiens, UniProt Q96KQ7); assay: EHMT2 enzyme assay on histone peptide substrate (EHMT2 PEP); assay type: biochemical; settings: read-out: EHMT2 PEP (IC50 μM)
T1 construct: recombinant purified human EHMT2 913-1193, Viva; purchased Viva
T1 sequence (Q96KQ7 913-1193): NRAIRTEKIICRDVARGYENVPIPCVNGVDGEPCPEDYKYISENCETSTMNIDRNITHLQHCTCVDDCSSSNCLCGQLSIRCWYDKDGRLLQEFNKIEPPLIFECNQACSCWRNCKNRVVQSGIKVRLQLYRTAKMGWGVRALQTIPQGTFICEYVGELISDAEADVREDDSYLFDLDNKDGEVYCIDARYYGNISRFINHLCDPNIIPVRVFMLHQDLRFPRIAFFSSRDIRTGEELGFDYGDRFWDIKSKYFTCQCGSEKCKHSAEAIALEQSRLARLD
Summary of the method: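 Compounds were tested as 3-fold dilutions, 10 points from a 50 μM final top (2% DMSO), after 30-min preincubation with 0.031 nM enzyme in Bicine buffer pH 7.5. Transfer of ^3H-methyl from ^3H-SAM to biotinylated histone peptide ran 60 min at room temperature and was detected by streptavidin Flashplate scintillation.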

[2] = target: T2, EHMT1 (Homo sapiens, UniProt Q9H9B1); assay: EHMT1 enzyme assay on peptide substrate (EHMT1 PEP); assay type: biochemical; settings: read-out: EHMT1 PEP (IC50 μM)
T2 sequence (Q9H9B1 1-1298): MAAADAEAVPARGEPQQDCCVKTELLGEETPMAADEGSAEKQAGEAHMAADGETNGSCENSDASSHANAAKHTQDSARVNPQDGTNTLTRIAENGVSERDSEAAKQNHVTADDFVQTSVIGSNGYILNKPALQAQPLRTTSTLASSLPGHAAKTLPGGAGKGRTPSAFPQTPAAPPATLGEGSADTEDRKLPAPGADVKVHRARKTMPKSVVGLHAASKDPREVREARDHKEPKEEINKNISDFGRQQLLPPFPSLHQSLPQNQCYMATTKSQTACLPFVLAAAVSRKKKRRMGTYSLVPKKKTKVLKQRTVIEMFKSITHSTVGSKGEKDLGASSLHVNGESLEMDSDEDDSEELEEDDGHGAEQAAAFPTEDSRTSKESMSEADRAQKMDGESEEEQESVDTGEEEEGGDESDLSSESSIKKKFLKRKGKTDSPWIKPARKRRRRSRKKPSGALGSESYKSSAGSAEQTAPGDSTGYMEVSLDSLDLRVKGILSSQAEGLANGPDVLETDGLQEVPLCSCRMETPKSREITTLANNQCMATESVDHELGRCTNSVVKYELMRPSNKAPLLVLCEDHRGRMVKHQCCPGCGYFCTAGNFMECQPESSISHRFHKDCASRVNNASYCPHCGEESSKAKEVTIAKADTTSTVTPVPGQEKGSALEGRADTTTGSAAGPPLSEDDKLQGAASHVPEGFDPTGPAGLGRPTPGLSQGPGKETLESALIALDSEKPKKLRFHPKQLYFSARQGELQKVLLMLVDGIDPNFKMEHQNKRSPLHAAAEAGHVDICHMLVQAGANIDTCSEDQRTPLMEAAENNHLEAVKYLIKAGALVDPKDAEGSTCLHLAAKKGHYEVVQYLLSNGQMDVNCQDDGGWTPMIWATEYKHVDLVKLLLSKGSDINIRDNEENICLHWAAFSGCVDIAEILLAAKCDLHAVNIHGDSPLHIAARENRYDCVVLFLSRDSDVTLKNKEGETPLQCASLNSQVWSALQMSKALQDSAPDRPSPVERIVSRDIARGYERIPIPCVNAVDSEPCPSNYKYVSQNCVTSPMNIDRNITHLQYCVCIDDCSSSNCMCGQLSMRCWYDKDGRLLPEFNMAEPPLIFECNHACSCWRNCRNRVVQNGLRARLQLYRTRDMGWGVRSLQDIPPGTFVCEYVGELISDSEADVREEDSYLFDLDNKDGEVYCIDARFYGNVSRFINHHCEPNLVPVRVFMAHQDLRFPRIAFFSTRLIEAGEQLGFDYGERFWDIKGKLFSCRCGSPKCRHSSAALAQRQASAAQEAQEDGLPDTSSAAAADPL

SMILES	IC50 ([1]; Table III) [µM]	IC50 ([2]; Table III) [µM]	IC50 ([1]; Table II) [µM]	IC50 ([2]; Table II) [µM]
CNc1ccnc(Nc2ccc(OC)c(OCCCN3CCCC3)c2)n1 [Compound 1, N^2-(4-methoxy-3-(3-(pyrrolidin-1-yl)propoxy)phenyl)-N^4-methylpyrimidine-2,4-diamine]			< 0.1	< 0.1
COc1ccc(Nc2nccc(NCC3CCN(CC(F)F)CC3)n2)cc1OCCCN1CCCC1 [Compound 2, N^4-((1-(2,2-difluoroethyl)piperidin-4-yl)methyl)-N^2-(4-methoxy-3-(3-(pyrrolidin-1-yl)propoxy)phenyl)pyrimidine-2,4-diamine]			< 0.1	< 0.1
COc1ccc(Nc2nccc(NCC3CCOCC3)n2)cc1OCCCN1CCCC1 [Compound 3, N^2-(4-methoxy-3-(3-(pyrrolidin-1-yl)propoxy)phenyl)-N^4-((tetrahydro-2H-pyran-4-yl)methyl)pyrimidine-2,4-diamine]			< 0.1	< 0.1
COc1ccc(Nc2nccc(NCC3CCN(CC(F)(F)F)CC3)n2)cc1OCCCN1CCCC1 [Compound 4, N^2-(4-methoxy-3-(3-(pyrrolidin-1-yl)propoxy)phenyl)-N^4-((1-(2,2,2-trifluoroethyl)piperidin-4-yl)methyl)pyrimidine-2,4-diamine]			< 0.1	0.1 to 1
COc1ccc(Nc2nccc(NC3CCOCC3)n2)cc1OCCCN1CCCC1 [Compound 5, N^2-(4-methoxy-3-(3-(pyrrolidin-1-yl)propoxy)phenyl)-N^4-(tetrahydro-2H-pyran-4-yl)pyrimidine-2,4-diamine]			0.1 to 1	0.1 to 1
COc1ccc(Nc2nccc(NCC(=O)N3CCOCC3)n2)cc1OCCCN1CCCC1 [Compound 51]			0.1 to 1	0.1 to 1
COc1ccc(Nc2nccc(NCC(=O)N(C)c3ccccc3)n2)cc1OCCCN1CCCC1 [Compound 52]			1 to 10	1 to 10
COc1ccc(Nc2nccc(N3Cc4cn[nH]c4C3)n2)cc1OCCCN1CCCC1 [Compound 53]			1 to 10	1 to 10
COc1ccc(Nc2nccc(NC3CCN(C(C)=O)CC3)n2)cc1OCCCN1CCCC1 [Compound 54]			0.1 to 1	0.1 to 1
COc1ccc(Nc2ncc(C)c(NCC3CCN(C(C)=O)CC3)n2)cc1OCCCN1CCCC1 [Compound 55]			0.1 to 1	0.1 to 1
COc1ccc(Nc2nccc(N(C)Cc3ccncc3)n2)cc1OCCCN1CCCC1 [Compound 56]			1 to 10	1 to 10
COc1ccc(Nc2nccc(NCC3CCN(C(C)=O)CC3)n2)cc1COCCN1CC(F)C1 [Compound 57]			1 to 10	1 to 10
c1cc(Nc2nccc(NCC3CCNCC3)n2)cc(OCCCN2CCCC2)c1 [Compound 88]			0.1 to 1	0.1 to 1
COc1ccc(Nc2nccc(NCC3CCNCC3)n2)cc1OCCCN1CCCC1 [Compound 90]			< 0.1	< 0.1
CNc1cc(OC)nc(Nc2ccc(OC)c(OCCCN3CCCC3)c2)n1 [Compound 261, 6-methoxy-N^2-(4-methoxy-3-(3-(pyrrolidin-1-yl)propoxy)phenyl)-N^4-methylpyrimidine-2,4-diamine]	> 10	> 10		
CNc1ccnc(Nc2ccc3c(c2)C(=O)N(CCN2CCCC2)CC3)n1 [Compound 264, 7-((4-(methylamino)pyrimidin-2-yl)amino)-2-(2-(pyrrolidin-1-yl)ethyl)-3,4-dihydroisoquinolin-1(2H)-one]	> 10	> 10		
COc1ccc(Nc2cccc3[nH]ccc23)cc1OCCCN1CCCC1 [Compound 265, N-(4-methoxy-3-(3-(pyrrolidin-1-yl)propoxy)phenyl)-1H-indol-4-amine]	> 10	> 10		
COc1ccc(Nc2nccc3[nH]ccc23)cc1OCCCN1CCCC1 [Compound 266, N-(4-methoxy-3-(3-(pyrrolidin-1-yl)propoxy)phenyl)-1H-pyrrolo[3,2-c]pyridin-4-amine]	1 to 10	1 to 10		
CNc1nccc(Nc2ccc(OC)c(OCCCN3CCCC3)c2)n1 [Compound 355]	< 0.1	< 0.1		
CNc1cc(C)nc(Nc2ccc(F)c(OCCCN3CCCC3)c2)n1 [Compound 356]	> 10	> 10		
CNc1nc(Nc2ccc(OC)c(OCCCN3CCCC3)c2)ncc1C#N [Compound 357]	> 10	> 10		
CNc1nc(Nc2ccc(OC)c(OCCCN3CCCC3)c2)ncc1C(F)(F)F [Compound 358]	> 10	> 10		

More lines, now with the values ahead:

IC50 ([1]; Table III) [µM]	IC50 ([2]; Table III) [µM]	IC50 ([1]; Table II) [µM]	IC50 ([2]; Table II) [µM]	SMILES
1 to 10	1 to 10			CNc1ccnc(Nc2ccc(OC)c(OC[C@H](O)CN3CCCC3)c2)n1 (single isomer, unassigned) [Compound 376]
1 to 10	> 10			CNc1ccnc(Nc2ccc(OC)c(OC[C@@H](O)CN3CCCC3)c2)n1 (single isomer, unassigned) [Compound 377]
1 to 10	0.1 to 1			CNc1ccnc(Nc2ccc(OC)c(OCC3CCN(C)C3)c2)n1 (single isomer, unassigned) [Compound 415]
< 0.1	< 0.1			CNc1ccnc(Nc2ccc(OC)c(OCC3CCN(C)C3)c2)n1 (single isomer, unassigned) [Compound 416]
0.1 to 1	0.1 to 1			CNc1cc(C)nc(Nc2ccc(OC)c(OCC3CCN(C)C3)c2)n1 (single isomer, unassigned) [Compound 417]
< 0.1	< 0.1			CNc1cc(C)nc(Nc2ccc(OC)c(OCC3CCN(C)C3)c2)n1 (single isomer, unassigned) [Compound 418]
> 10	> 10			CNc1ncc(C(F)(F)F)c(Nc2ccc(OC)c(OCCCN3CCCC3)c2)n1 [Compound 359]
0.1 to 1	0.1 to 1			CNc1nc(Nc2ccc(OC)c(OCCCN3CCCC3)c2)nc(C)c1F [Compound 360]
1 to 10	1 to 10			CNc1ccnc(Nc2ccc(OC)c(OCCN3CCOCC3)c2)n1 [Compound 361]
> 10	> 10			CNc1cc(C(F)(F)F)nc(Nc2ccc(OC)c(OCCCN3CCCC3)c2)n1 [Compound 362]
> 10	> 10			CNc1ccnc(Nc2ccc3c(c2)N(C(=O)CCN(C)C)CC3)n1 [Compound 363]
< 0.1	< 0.1			CCc1cc(NC)nc(Nc2ccc(OC)c(OCCCN3CCCC3)c2)n1 [Compound 364]
> 10	> 10			COc1ccc(Nc2nccc(CNC3CCOCC3)n2)cc1OCCCNc1ccccc1 [Compound 365]
1 to 10	1 to 10			COc1ccc(Nc2cnnc(NCC3CCN(C(C)=O)CC3)c2)cc1OCCCN1CCCC1 [Compound 366]
> 10	> 10			COc1ccc(Nc2nccc(NCC3CCOCC3)n2)cc1OC1CC2(C1)CN(C)C2 [Compound 367]
> 10	> 10			CNc1ccnc(Nc2ccc(F)c(OCCCN3CCCC3)c2)n1 [Compound 368]
0.1 to 1	0.1 to 1			COc1ccc(Nc2nccc(N)n2)cc1OCCCN1CCCC1 [Compound 369]
0.1 to 1	0.1 to 1			CNc1cnnc(Nc2ccc(OC)c(OCCCN3CCCC3)c2)c1 [Compound 370]
1 to 10	1 to 10			CNc1cncc(Nc2ccc(OC)c(OCCCN3CCCC3)c2)n1 [Compound 371]
